Experimental data: PubChem BioAssay (NCI)
Several values for one entry are separate records, joined by “and”; a condition that tells them apart may be missing. Equal entries are not always repeated.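 Dose response: 5 concentrations. Exposure: 48 h. Format: 96-well plates. Endpoint: linear interpolation; highest concentration if not reached. GI50: concentration for 50% inhibition of growth. TGI is the concentration that stops growth completely.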

How the values were obtained:
Experiment in all cases: growth of human tumour cells (NCI), 48 h
SNB-19 CNS = system: SNB-19 CNS
CAKI-1 renal = system: CAKI-1 renal
HCT-15 colon = system: HCT-15 colon
DU-145 prostate = system: DU-145 prostate
UACC-62 melanoma = system: UACC-62 melanoma
MDA-MB-231 breast = system: MDA-MB-231 breast
SK-MEL-2 melanoma = system: SK-MEL-2 melanoma
K-562 leukemia = system: K-562 leukemia
MCF7 breast = system: MCF7 breast
LOX IMVI melanoma = system: LOX IMVI melanoma

SMILES | GI50 (SNB-19 CNS) | TGI (SNB-19 CNS) | GI50 (CAKI-1 renal) | TGI (CAKI-1 renal) | GI50 (HCT-15 colon) | TGI (HCT-15 colon) | GI50 (DU-145 prostate) | TGI (DU-145 prostate) | GI50 (UACC-62 melanoma) | TGI (UACC-62 melanoma) | GI50 (MDA-MB-231 breast) | TGI (MDA-MB-231 breast) | GI50 (SK-MEL-2 melanoma) | TGI (SK-MEL-2 melanoma) | TGI (K-562 leukemia) | TGI (MCF7 breast) | TGI (LOX IMVI melanoma) | GI50 (K-562 leukemia) | GI50 (MCF7 breast) | GI50 (LOX IMVI melanoma)
CCNCCCn1c2c(c3ccc(Cl)cc3c1=O)C(=O)c1cc(OC)cnc1-2 | 0.585 µM | 2.66 µM | 0.0472 µM | 16.8 µM | 1.02 µM | 2.5 µM | 0.208 µM | 1.56 µM | 0.532 µM | 21.4 µM | 1.5 µM | 3.23 µM | 12.5 µM | 29.2 µM | – | – | – | – | – | –
O=C1NC(=O)C(C(CC(=O)c2ccc([N+](=O)[O-])cc2)c2ccccc2)C(=O)N1 (stereo unspecified) | – | > 100 µM | – | – | – | > 100 µM | – | > 100 µM | – | > 100 µM | – | > 100 µM | – | > 100 µM | > 100 µM | 27 µM | 38.7 µM | – | – | –
O=S(Nc1ccccc1)c1ccc(N2CCOCC2)cc1 (stereo unspecified) | – | > 100 µM | – | – | – | > 100 µM | – | > 100 µM | – | 99.3 µM | – | > 100 µM | – | > 100 µM | > 100 µM | > 100 µM | > 100 µM | – | – | –
COc1ccc2c3c1OC1C(=O)C=CC4(CC2)N(C)CCC314 (stereo unspecified) | – | 76.9 µM | – | > 100 µM | – | > 100 µM | – | > 100 µM | – | – | – | > 100 µM | – | 54.3 µM | > 100 µM | > 100 µM | > 100 µM | – | – | –
CN(C)C(=O)OC1C(=O)N(C)c2ccc(Cl)cc2C2(c3ccccc3)N1C2(Cl)Cl (stereo unspecified) | – | – | – | > 100 µM | – | > 100 µM | – | – | – | > 100 µM | – | – | – | > 100 µM | > 100 µM | – | > 100 µM | – | – | –
NCCCN(CCCN(C(=O)Nc1ccccc1)c1ccccc1)C(=O)Nc1ccccc1 | – | > 100 µM | – | – | – | > 100 µM | – | > 100 µM | – | 58 µM | – | > 100 µM | – | 55.6 µM | > 100 µM | > 100 µM | 56.6 µM | – | – | –
ClCCCc1ccccc1C1=NCCc2ccccc21 | – | > 100 µM | – | > 100 µM | – | > 100 µM | – | > 100 µM | – | > 100 µM | – | > 100 µM | – | > 100 µM | > 100 µM | > 100 µM | – | – | – | –
Cc1ccc(S(=O)(=O)n2c3ccc(Br)cc3c3nc4ccccc4nc32)cc1 | – | > 100 µM | – | > 100 µM | – | > 100 µM | – | > 100 µM | – | > 100 µM | – | > 100 µM | – | > 100 µM | > 100 µM | – | > 100 µM | – | – | –
Cc1cc(F)ccc1S(=O)(=O)Nc1cc(-c2c(O)ccc3ccccc23)c(O)c2ccccc12 | – | – | 2.5 µM | 10.9 µM | 2.68 µM | 11.4 µM | 4.09 µM | 14.4 µM | 1.85 µM | 4.54 µM | 2.64 µM | 13.8 µM | 2 µM | 5.73 µM | 13 µM | 25.6 µM | 10.8 µM | 3.56 µM | 2.42 µM | 2.91 µM
[Cl][Sn]([c]1ccccc1)([c]1ccccc1)[c]1ccccc1 | 0.314 µM and 0.113 µM and 0.0355 µM | 1.07 µM and 0.24 µM and 0.129 µM | – | – | – | – | 0.21 µM | 0.428 µM | – | – | 0.216 µM | 0.54 µM | – | 0.524 µM and 0.196 µM and 0.0578 µM | 0.892 µM | – | – | 0.302 µM | – | –
Cc1csc(NC23CC4CC(CC(C4)C2)C3)[n+]1C(P(=O)([O-])O)P(=O)(O)O (stereo unspecified) | – | > 100 µM | – | > 100 µM | – | > 100 µM | – | > 100 µM | – | > 100 µM | – | > 100 µM | – | – | > 100 µM | > 100 µM | > 100 µM | – | – | –
COC(OC)[C@@H]1OC[C@H](n2cnc3c(N)ncnc32)[C@H]1O | – | > 100 µM | – | > 100 µM | – | > 100 µM | – | > 100 µM | – | > 100 µM | – | > 100 µM | – | > 100 µM | > 100 µM | – | > 100 µM | – | – | –
COc1cc2ccc(=O)oc2cc1O | – | 432 µM | – | 401 µM | – | > 625 µM | – | – | – | 161 µM | – | – | – | 577 µM | 562 µM | 476 µM | > 625 µM | – | – | –
NC(=O)c1cccc([N+](=O)[O-])c1 | – | > 100 µM | – | > 100 µM | – | > 100 µM | – | – | – | > 100 µM | – | – | – | > 100 µM | > 100 µM | – | > 100 µM | – | – | –
CC(=O)OCC1OC(SC2=N/C(=C\c3ccc(Br)s3)C(=O)N2CN2CCOCC2)C(OC(C)=O)C(OC(C)=O)C1OC(C)=O (stereo unspecified) | – | 46.7 µM | – | 34.3 µM | – | 49.1 µM | – | 30.6 µM | – | 32.1 µM | – | > 100 µM | – | – | 45.7 µM | 33.8 µM | 26.8 µM | – | – | –
O=c1cc(N2CCCC2)[nH]c(=O)n1Cc1ccccc1 | – | > 100 µM | – | > 100 µM | – | > 100 µM | – | > 100 µM | – | – | – | > 100 µM | – | > 100 µM | > 100 µM | > 100 µM | > 100 µM | – | – | –
COP(=O)(OC)C(Cc1cn(C(C)=O)c2ccccc12)C(=O)O (stereo unspecified) | – | > 100 µM | – | > 100 µM | – | > 100 µM | – | > 100 µM | – | – | – | > 100 µM | – | > 100 µM | > 100 µM | > 100 µM | > 100 µM | – | – | –
